Experimental data taken from US20240139167A1, “LYSOSOME-ASSOCIATED MEMBRANE PROTEIN TARGETING COMPOUNDS AND USES THEREOF” (HADASIT MEDICAL RESEARCH SERVICES AND DEVELOPMENT LTD., priority 2021, published 2024).

System: PD patient-derived skin fibroblasts
Experiment: Autophagic flux in Pompe disease fibroblasts
Format: cell-based, human
Protocol: FIG. 15 includes a micrograph and a vertical bar graph showing autophagic flux in PD patient-derived skin fibroblasts, serum starved and treated (or not) with 50 μM 144DG11 (indicated as comp. A).
144DG11 can activate autophagy in the lysosomal storage disease (LSD) Pompe disease (PD) in which autophagy is perturbed (FIG. 15). […] This ratio serves as the most accepted marker for autophagy and autophagic flux. […] These observations indicate that, as in the GSD APBD, 144DG11 can activate autophagy also in the typical LSD PD in which autophagy is disturbed.

CC[C@]1(O)C[C@@H]2CN(CCc3c([nH]c4ccccc34)[C@@](C(=O)OC)(c3cc4c(cc3OC)N(C)[C@H]3[C@@](O)(C(=O)OC)[C@H](OC(C)=O)[C@]5(CC)C=CCN6CC[C@]43[C@@H]65)C2)C1 [vinblastine, reference compound]
ratio of LC3II to LC3I: increased
